“And” between values parts separate entries of the source, which are not always exact repeats. Identical values can stand only once. Like-named read-outs stand apart in the source and are kept apart here. Marks after values point to notes of the source that are not given here.
Legend:
A431 cancer cells [1] = assay: MTT-based cytotoxicity assay under different O2 levels; format: cell-based, Human; conditions: A431, 72 h
[2] = cited from earlier work
[3] = Proton dissociation constants by pH-potentiometric titration; format: physicochemical; conditions: pH-potentiometry, 25.0 °C, I = 0.1 M (KCl)
Text: After reductive activation of the cobalt(III) prodrugs, it is essential to investigate whether the formed cobalt(II) complexes indeed can release the coordinated targeting ligand. For this reason, we selected two ternary systems as models to study the potential liberation of the (N,N) ligand from the mixed-ligand cobalt complex upon reduction. Thus, the aqueous stability of several cobalt(II) complexes was investigated under strictly anaerobic conditions. Due to the limited water solubility of cobalt(II) chloride complexes with L, model ligands with better solubility, namely, MeEn and PhEn, were used. First, deprotonation processes of the acetlyacetone (Hacac) and the fully protonated MeEn and PhEn ligands were followed at pH 2.0–11.5 (Table 2).
(§1) For determination of the proton dissociation (Ka) and formation constants (β) pH-potentiometric measurements were carried out at 25 ± 0.1 °C and an ionic strength (I) of 0.10 M (KCl) to keep the activity coefficients constant. A carbonate-free KOH solution (0.10 M) was used for titrations. The exact concentrations of HCl and KOH were determined by pH-potentiometric titrations. A Metrohm-combined electrode (type 6.0234.100) connected to an Orion 710A pH-meter and a computer-controlled Methrom 665 Dosimat buret (increment, 1 μL; precision, 2 μL) were used for the pH-potentiometric measurements. […] The determined average water ionization constant (pKw = 13.76 ± 0.01) corresponds well to the literature data.[37] Titration points included in the calculations gave a reproducibility within 0.005 pH unit. Titrations were performed in the pH range of 2.0–11.5, and the initial volume of the samples was 10 mL. Binary systems contained 1 or 2 mM ligand, and metal:ligand ratios of 1:1, 1:2, 1:3, and 1:4 were used. In the ternary systems, the cobalt(II) concentration was 1 mM and the two types of ligands (A, acac, and B, MeEn, or PhEn) were varied as follows: 1:1:1, 1:2:1, 1:1:2, and 1:2:2 Co(II):A:B. The samples were degassed by bubbling purified argon through them for 10 min prior to the measurements, and argon was also passed over the solutions during the titrations.

[4] = Overall stability constants of binary and ternary cobalt(II) complexes by pH-potentiometry; format: physicochemical; conditions: for fraction of ligand coordinated to cobalt(II): 1:2:1 cobalt(II)-acac-ligand system, computed from stability constants; for log β [Co(II)A2B]0 ternary complex / log β [Co(II)AB2]+ ternary complex / log β [Co(II)AB]+ ternary complex: A = acac, B = MeEn or PhEn
Experimental: Following the determination of the stability constants for the binary complexes (Table 2), overall stability constants for the mixed-ligand complexes formed in the cobalt(II)–acac–MeEn and cobalt(II)–acac–PhEn ternary systems were calculated on the basis of pH-potentiometric titrations. Three types of complexes were formed, [CoAB]^+, [CoA2B], and [CoAB2]^+, where “A” denotes acac and “B” refers to MeEn or PhEn. Concentration distribution curves in Figure 5 were computed using the stability constants of the 1:2:1 cobalt(II)–acac–PhEn composition that corresponds to the reduced form of Co(II)(acac)2L^0. […] For the 1:2:1 cobalt(II)–acac–MeEn system, ∼11% are still coordinated to cobalt(II) at pH 7.4 (Figure S6). However, it has to be mentioned that these calculations were performed for 1 mM cobalt(II) (where the titrations were performed), and the amount of the intact ternary complex further decreases with lower concentrations [e.g., in the latter system at pH 7.4 and 0.1 mM cobalt(II), the coordinated MeEn fraction is only ∼2%].
as §1
The stoichiometry of the complexes and overall stability constants were established by the computer program Hyperquad2013.[53] For the general equilibrium β(MpLqHr) is defined as [drawing 2] 1 where M denotes the cobalt(II) ion and L the completely deprotonated ligand. The calculations were performed as reported in our previous work.[54]

[5] = I = 0.1 M NaClO4; cited from earlier work
A431 cancer cells [6] = conditions: cited from earlier work
[7] = Cyclic voltammetry, cathodic peak potential Co(III)/Co(II); format: physicochemical; conditions: 10 mM phosphate buffer pH 7.40, 0.1 M KCl, scan rate 30 mV/s, 1.5 mM complex
Experimental: As the reduction process is crucial for the activation of cobalt(III)-based prodrug systems, the redox properties of the complexes were investigated to elucidate the effects of ligand methylation at different positions. Cyclic voltammetry measurements were performed in aqueous solution at pH 7.40 (10 mM phosphate buffer with 0.1 M KCl). […] Also, at a much higher scan speed of 1000 mV/s, the redox processes were still completely irreversible (Figure S5).
The compounds were dissolved in 10 mM phosphate buffer (pH 7.40), with 0.1 M KCl as the supporting electrolyte, to obtain a final concentration of 1.5 mM. Electrochemical experiments were conducted on an EG&G PARC 273A potentiostat/galvanostat with scan rates of 30 and 1000 mV/s at room temperature. Argon was bubbled through the solution before every measurement to remove oxygen. A three-electrode configuration cell was used with a glassy carbon electrode as the working electrode, which was polished before every measurement. The reference electrode was Ag/AgCl/KCl (3.5 M), and the auxiliary electrode was a platinum wire. Electrodes were conditioned regularly in 1 M H2SO4 for 5–10 cycles between voltage limits of −1.0 and 1.0 V at a scan rate of 100 mV/s. The system was calibrated with 1.5 mM K3[Fe(CN)6] for every experiment. Redox potentials measured relative to the Ag/AgCl/KCl (3.5 M) reference electrode were converted for potentials against NHE by the addition of 0.205 V. Measurements were repeated at least three times, and the mean values were calculated.

[8] = system: EGFR phosphorylation at position Y1068 and ERK 1/2 in A431 cells; assay: Western blot of EGFR signaling (pEGFR Y1068, pERK 1/2) after EGF stimulation; format: cell-based, Human; conditions: A431 serum-starved, 2 h drug, EGF 50 ng/mL 10 min, normoxic
EGFR (ErbB1) = EGFR (ErbB1) (Homo sapiens, UniProt P00533); assay: Cell-free kinase inhibition assay (ZLYTE, Select Screen); format: biochemical; conditions: 10 μM ATP (10-fold excess of ATP), 1% DMSO
EGFR (ErbB1), sequence (P00533 25-1210): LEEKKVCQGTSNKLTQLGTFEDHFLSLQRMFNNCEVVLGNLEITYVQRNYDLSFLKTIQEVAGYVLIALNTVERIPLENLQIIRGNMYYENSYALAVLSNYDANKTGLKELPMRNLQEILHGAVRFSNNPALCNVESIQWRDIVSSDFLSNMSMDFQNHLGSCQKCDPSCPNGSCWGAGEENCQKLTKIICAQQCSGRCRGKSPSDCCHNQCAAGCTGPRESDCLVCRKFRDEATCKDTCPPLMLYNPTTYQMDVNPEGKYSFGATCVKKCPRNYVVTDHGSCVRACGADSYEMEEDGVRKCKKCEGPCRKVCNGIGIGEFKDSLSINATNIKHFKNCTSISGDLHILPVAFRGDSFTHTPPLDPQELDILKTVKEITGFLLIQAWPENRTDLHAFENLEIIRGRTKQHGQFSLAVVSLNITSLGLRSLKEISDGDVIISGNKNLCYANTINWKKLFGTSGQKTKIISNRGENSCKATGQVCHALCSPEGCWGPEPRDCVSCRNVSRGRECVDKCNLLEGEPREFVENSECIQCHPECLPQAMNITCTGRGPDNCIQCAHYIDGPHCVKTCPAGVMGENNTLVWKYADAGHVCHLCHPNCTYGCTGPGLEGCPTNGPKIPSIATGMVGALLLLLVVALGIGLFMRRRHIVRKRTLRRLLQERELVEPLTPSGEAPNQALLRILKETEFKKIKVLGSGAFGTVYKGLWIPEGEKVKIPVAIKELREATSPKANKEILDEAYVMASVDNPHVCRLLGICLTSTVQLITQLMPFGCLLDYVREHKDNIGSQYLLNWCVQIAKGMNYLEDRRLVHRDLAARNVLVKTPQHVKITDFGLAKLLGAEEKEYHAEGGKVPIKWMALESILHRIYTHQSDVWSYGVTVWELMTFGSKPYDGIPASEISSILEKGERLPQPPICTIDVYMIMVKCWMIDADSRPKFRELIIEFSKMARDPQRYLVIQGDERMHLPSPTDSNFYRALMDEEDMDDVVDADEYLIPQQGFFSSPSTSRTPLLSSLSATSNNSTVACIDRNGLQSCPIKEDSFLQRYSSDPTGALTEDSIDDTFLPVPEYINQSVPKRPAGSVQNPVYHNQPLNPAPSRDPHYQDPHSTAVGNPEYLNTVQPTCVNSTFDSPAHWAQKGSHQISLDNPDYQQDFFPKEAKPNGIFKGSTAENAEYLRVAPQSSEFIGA

[9] = Homo sapiens, A-431, 1% O2, read-out: IC50 hypoxia with 1% O2
[10] = Homo sapiens, A-431, 21% O2, read-out: IC50 normoxia
[11] = pH 7.0, NAD+/NADH or GSSG/GSH couple
[12] = 25.0 °C, I = 0.1 M (KCl), anaerobic

Molecule: C#Cc1cccc(Nc2ncnc3cc(OCCOC)c(OCCOC)cc23)c1 [erlotinib, reference compound]
- IC50 (A431 cancer cells [1]; [9]): 14.4 ± 4 µM
- IC50 (A431 cancer cells [1]; [10]): 13.3 ± 4.7 µM

Molecule: NC(=O)C1=CN([C@@H]2O[C@H](COP(=O)(O)OP(=O)(O)OC[C@H]3O[C@@H](n4cnc5c(N)ncnc54)[C@H](O)[C@@H]3O)[C@@H](O)[C@H]2O)C=CC1 [NADH, reduced nicotinamide adenine dinucleotide]
- formal potential [2, 11]: −0.32 V

Molecule: CC(=O)CC(C)=O [acac, acetylacetone]
- pKa1 [3]: 8.80 ± 0.01 ^b
- log β [Co(II)L2] binary complex [4, 12]: 8.66 ± 0.05 ^b
- log β [Co(II)L] binary complex [4, 12]: 5.05 ± 0.02 ^b
- pKa [5]: 8.82

Molecule: CC(=O)C=C(C)[O-].CC(=O)C=C(C)[O-].NCCN.[Co+2] [[Co(II)(acac)2en]]
- cytotoxic activity (A431 cancer cells [6]; A431 cells, both normoxia and hypoxia): No significant cytotoxic activity

Molecule: NCCNc1ccccc1 [PhEn, N-phenylethylenediamine]
- pKa1 [3]: 1.85 ± 0.01 ^c
- pKa2 [3]: 9.34 ± 0.01 ^c
- fraction of ligand coordinated to cobalt(II) ([4]; pH 7.4, 1 mM cobalt(II)): < 1%
- log β [Co(II)L2] binary complex [4, 12]: 6.75 ± 0.09
- log β [Co(II)L] binary complex [4, 12]: 3.63 ± 0.05
- log β [Co(II)A2B]0 ternary complex ([4]; 25.0 °C, I = 0.1 M (KCl)): 12.08 ± 0.09
- log β [Co(II)AB2]+ ternary complex ([4]; 25.0 °C, I = 0.1 M (KCl)): 11.29 ± 0.13
- log β [Co(II)AB]+ ternary complex ([4]; 25.0 °C, I = 0.1 M (KCl)): 8.03 ± 0.15

Molecule: CNCCN [MeEn, N-methylethylenediamine]
- pKa1 [3]: 7.04 ± 0.02
- pKa2 [3]: 9.98 ± 0.01
- fraction of ligand coordinated to cobalt(II) ([4]; pH 7.4, 0.1 mM cobalt(II)): ~2%
- fraction of ligand coordinated to cobalt(II) ([4]; pH 7.4, 1 mM cobalt(II)): ~11%
- log β [Co(II)L2] binary complex [4, 12]: 9.15 ± 0.02
- log β [Co(II)L3] binary complex [4, 12]: 12.94 ± 0.04
- log β [Co(II)L] binary complex [4, 12]: 5.26 ± 0.01
- log β [Co(II)A2B]0 ternary complex ([4]; 25.0 °C, I = 0.1 M (KCl)): 12.73 ± 0.09
- log β [Co(II)AB2]+ ternary complex ([4]; 25.0 °C, I = 0.1 M (KCl)): 13.20 ± 0.12
- log β [Co(II)AB]+ ternary complex ([4]; 25.0 °C, I = 0.1 M (KCl)): 9.82 ± 0.05

Molecule: O=C1O[C@H]([C@@H](O)CO)C(O)=C1O [AA, ascorbic acid]
- formal potential, higher values suggested by recent literature [2]: 0.35–0.50 V
- formal potential ([2]; dehydro-L-ascorbate/AA at pH 7.0): 0.06 V

Molecule: N[C@@H](CCC(=O)N[C@@H](CS)C(=O)NCC(=O)O)C(=O)O [GSH, Glutathione]
- formal potential [2, 11]: −0.24 V

Molecule: Bis(2,4-pentanedionato) (Methyl-1,2-ethanediamine) Cobalt(III) Hexafluorophosphate [Co(acac)2MeEn^+]
- cathodic peak potential (Ec) vs NHE [7]: -152 mV

Molecule: Bis(3-methyl-2,4-pentanedionato) (Methyl-1,2-ethanediamine) Cobalt(III) Hexafluorophosphate [Co(Meacac)2MeEn^+]
- cathodic peak potential (Ec) vs NHE [7]: -200 mV

Molecule: CNCCNc1ccc2ncnc(Nc3cccc(Br)c3)c2c1.Cl.Cl [MeL, N^4-(3-Bromophenyl)-N^6-[2-(methylamino)ethyl]quinazoline-4,6-diamine Dihydrochloride]
- EGFR-inhibitory potential (pEGFR, pERK 1/2) [8]: potent EGFR inhibition
- IC50 (EGFR (ErbB1)): 0.00041 µM
- anticancer activity relative to L (A431 cancer cells [1]): approximately twice as effective as L
- IC50 (A431 cancer cells [1]; Homo sapiens, A-431, 0.1% O2, read-out: IC50 hypoxia with 0.1% O2): 5.4 ± 0.8 µM
- IC50 (A431 cancer cells [1]; [9]): 5.5 ± 0.4 µM
- IC50 (A431 cancer cells [1]; Homo sapiens, A-431, 5% O2, read-out: IC50 hypoxia with 5% O2): 8.7 ± 1.2 µM
- IC50 (A431 cancer cells [1]; [10]): 6.9 ± 1.8 µM

Molecule: CC(=O)[C-](C)C(C)=O.CC(=O)[C-](C)C(C)=O.CNCCNc1ccc2ncnc(Nc3cccc(Br)c3)c2c1.[Cl-].[Co+3] [Co(Meacac)2MeL^+, Bis(3-methyl-2,4-pentanedionato) N^4-(3-Bromophenyl)-N^6-[2-(methylamino)ethyl]quinazoline-4,6-diamine Cobalt(III) Chloride]
- cathodic peak potential (Ec) vs NHE [7]: 17 mV
- EGFR-inhibitory potential (pEGFR, pERK 1/2) [8]: distinctly weakened EGFR-inhibitory potential
- increase in cytotoxicity at 0.1% O2 compared to normoxic conditions (A431 cancer cells [1]): 2.9 fold
- IC50 (A431 cancer cells [1]; 0.1% O2, read-out: IC50 hypoxia with 0.1% O2): 19.9 ± 1 µM
- IC50 (A431 cancer cells [1]; 1% O2, read-out: IC50 hypoxia with 1% O2): ~32 µM and 32 µM
- IC50 (A431 cancer cells [1]; 5% O2, read-out: IC50 hypoxia with 5% O2): 55.2 ± 1.4 µM
- IC50 (A431 cancer cells [1]; 21% O2, read-out: IC50 normoxia): 58.6 ± 4.4 µM

Molecule: [Cl-].[Cl-].[Co+2] [CoCl2]
- cytotoxic activity (A431 cancer cells [6]): No significant cytotoxic activity

— paper PMC7724630, “Improving the Stability of EGFR Inhibitor Cobalt(III) Prodrugs” (Inorganic Chemistry, 2020)
